Assays:
[1] = system: human lung cancer cells (A549); test: Nude mouse xenograft model of human lung cancer cells, intraperitoneal administration; assay type: in vivo
Description: Anticancer activity against lung cancer according to the intraperitoneal administration of Tr-9 was confirmed through a nude mouse xenograft model of human lung cancer cells (A549). In Example 4, it was carried out using the same animal model and method as the oral administration, except that it was administered intraperitoneally.
(§1) Specific pathogen-free (SPF) nude mice of the BALB/C strain were used as the animal model. Animals were bred in the animal room of Daedeok Campus of Hannam University maintained at a temperature of 23±3° C., relative humidity of 55±15%, ventilation frequency of 10-20 times/hr, lighting time of 12 hours(lights on at 8 am and off at 8 pm) and illuminance of 150 to 300 Lux.
(§2) For cancer cell transplantation, all cells were collected and counted on the last day of culture, and the concentration of human lung cancer cell line A549 was adjusted to 5×10^6 cells/ml using PBS. The adjusted cell culture solution was injected subcutaneously into the auxiliary region between the right scapula and chest wall at 0.2 ml (1×10^6 cells/mouse) per mouse.
The Tr-9 was dissolved in sterile PBS and 1 mM Tr-9 200 µℓ was intraperitoneally administered per mouse once a day, and all animals were weighed immediately before the start of drug (Tr-9) administration and 10 times in total from day 2 to day 23 after cancer cell transplantation (Table 4).
(§3) In Table 4 above, data values are the mean ± standard deviation. After measuring the body weight, the animals were killed using CO2 gas, and the tumor was separated and the size was measured in 3 directions using a vernier caliper for each animal. Then, the change in tumor size was expressed as a calculated value of (length × width × height)/2 (Table 4).
(§4) Tumor size increase is (Δt)= Vt—Vo, wherein Vt is the value of measuring the tumor size by date, and Vo is the value of measuring the initial tumor size.

[2] = Change in mouse weight, A549 xenograft, oral administration; assay type: in vivo, nude mouse; set-up: Change in mouse weight: unit not given here; details: once a day
Description: (§5) The Tr-9 was dissolved in sterile PBS and 1 mM Tr-9 200 µℓ was orally administered per mouse once a day, and all animals were weighed immediately before the start of drug (Tr-9) administration and 10 times in total from day 2 to day 23 after cancer cell transplantation (Table 1).
as §3, with “1” for “4”, “2).” for “4).”

[3] = Change in mouse weight, HCT116 xenograft, intraperitoneal administration; assay type: in vivo, nude mouse; set-up: Change in mouse weight: unit not given here; details: intraperitoneal once a day
Description: The Tr-9 was dissolved in sterile PBS and 1 mM Tr-9 200 µℓ was intraperitoneally administered per mouse once a day, and all animals were weighed immediately before the start of drug (Tr-9) administration and 9 times in total from day 2 to day 21 after cancer cell transplantation (Table 7).
as §3, with “7” for “4”, “8).” for “4).”

[4] = system: human lung cancer cells (A549); test: Nude mouse xenograft model of human lung cancer cells, oral administration; assay type: in vivo; set-up: Tumor size increase (Vt—V0): unit not given here
Description: as §1, with “Anticancer activity against lung cancer according to the oral administration of Tr-9 was confirmed through a nude mouse xenograft model of human lung cancer cells (A549). Specific” for “Specific”
as §2, §5
as §3, with “1” for “4”, “2).” for “4).”
as §4

Change in mouse weight ([2]; 0 Day after drug treatment): 100.0 ±0.0
Change in mouse weight ([2]; 2 Days after drug treatment): 95.6 ±1.7
Change in mouse weight ([2]; 5 Days after drug treatment): 96.9 ±1.8
Change in mouse weight ([2]; 7 Days after drug treatment): 99.5 ±1.5
Change in mouse weight ([2]; 9 Days after drug treatment): 102.3 ±2.8
Change in mouse weight ([2]; 12 Days after drug treatment): 98.6 ±1.5
Change in mouse weight ([2]; 14 Days after drug treatment): 100.7 ±3.6
Change in mouse weight ([2]; 16 Days after drug treatment): 102.5 ±3.8
Change in mouse weight ([2]; 19 Days after drug treatment): 103.6 ±5.5
Change in mouse weight ([2]; 21 Days after drug treatment): 102.9 ±5.7
Change in mouse weight ([2]; 23 Days after drug treatment): 104.7 ±5.6
Change in mouse weight ([3]; 0 Day after drug treatment): 100.0 ±0.0
Change in mouse weight ([3]; 2 Days after drug treatment): 99.7 ±1.7
Change in mouse weight ([3]; 5 Days after drug treatment): 100.5 ±3.2
Change in mouse weight ([3]; 7 Days after drug treatment): 99.9 ±4.1
Change in mouse weight ([3]; 9 Days after drug treatment): 99.8 ±4.9
Change in mouse weight ([3]; 11 Days after drug treatment): 98.6 ±3.5
Change in mouse weight ([3]; 14 Days after drug treatment): 99.7 ±4.5
Change in mouse weight ([3]; 16 Days after drug treatment): 98.5 ±6.0
Change in mouse weight ([3]; 18 Days after drug treatment): 100.4 ±5.5
Change in mouse weight ([3]; 21 Days after drug treatment): 102.4 ±7.0
SMILES: CC(=O)OC(C)(C)C1CC2=C(C)C(=O)CC2C(C)CC1OC(=O)CC(C)C (stereo not shown) [Tr-9]
tumor size further reduced compared to the group intraperitoneally administered with the torilin ([1]; intraperitoneal): about 17%
Tumor size increase (Vt−V0) ([1]; intraperitoneal once a day, Day 0, table title: Change in tumor size): 0.0±0.0
Tumor size increase (Vt−V0) ([1]; intraperitoneal once a day, Day 2, table title: Change in tumor size): 7.0±5.4
Inhibition rate (tumor size increase) ([1]; intraperitoneal once a day, Day 2, vs control): 48.5%
Tumor size increase (Vt−V0) ([1]; intraperitoneal once a day, Day 5, table title: Change in tumor size): 13.8±8.5
Inhibition rate (tumor size increase) ([1]; intraperitoneal once a day, Day 5, vs control): 34.0%
Tumor size increase (Vt−V0) ([1]; intraperitoneal once a day, Day 7, table title: Change in tumor size): 19.6±10.1
Inhibition rate (tumor size increase) ([1]; intraperitoneal once a day, Day 7, vs control): 42.2%
Tumor size increase (Vt−V0) ([1]; intraperitoneal once a day, Day 9, table title: Change in tumor size): 24.4±7.1
Inhibition rate (tumor size increase) ([1]; intraperitoneal once a day, Day 9, vs control): 46.7%
Tumor size increase (Vt−V0) ([1]; intraperitoneal once a day, Day 12, table title: Change in tumor size): 61.1±7.0
Inhibition rate (tumor size increase) ([1]; intraperitoneal once a day, Day 12, vs control): 30.5%
Tumor size increase (Vt−V0) ([1]; intraperitoneal once a day, Day 14, table title: Change in tumor size): 116.4±15.1
Inhibition rate (tumor size increase) ([1]; intraperitoneal once a day, Day 14, vs control): 22.7%
Tumor size increase (Vt−V0) ([1]; intraperitoneal once a day, Day 16, table title: Change in tumor size): 198.3±22.8
Inhibition rate (tumor size increase) ([1]; intraperitoneal once a day, Day 16, vs control): 24.6%
Tumor size increase (Vt−V0) ([1]; intraperitoneal once a day, Day 19, table title: Change in tumor size): 309.2±39.5
Inhibition rate (tumor size increase) ([1]; intraperitoneal once a day, Day 19, vs control): 39.6%
Tumor size increase (Vt−V0) ([1]; intraperitoneal once a day, Day 21, table title: Change in tumor size): 415.2±53.1
Inhibition rate (tumor size increase) ([1]; intraperitoneal once a day, Day 21, vs control): 38.9%
Tumor weight at Day 23 ([1]; intraperitoneal once a day, Day 23): 0.641 ± 0.1 g
Tumor size increase (Vt−V0) ([1]; intraperitoneal once a day, Day 23, table title: Change in tumor size): 531.8±46.5
Inhibition rate (tumor size increase) ([1]; intraperitoneal once a day, Day 23, vs control): 44.2%
tumor size compared to the control group ([1]; intraperitoneal, after day 19): statistically significantly smaller
difference in body weight according to the administration of the drugs ([2]; day 2 to day 23): almost no difference in body weight
difference in body weight according to the administration of the drugs ([3]; day 2 to day 21): almost no difference in body weight
Tumor size increase (Vt—V0) ([4]; oral once a day, Day 0): 0.0±0.0
Tumor size increase (Vt—V0) ([4]; oral once a day, Day 2): 5.4±1.4
Inhibition rate (tumor size increase) ([4]; oral once a day, Day 2, vs control): 55.4%
Tumor size increase (Vt—V0) ([4]; oral once a day, Day 5): 13.9±6.1
Inhibition rate (tumor size increase) ([4]; oral once a day, Day 5, vs control): 31.5%
Tumor size increase (Vt—V0) ([4]; oral once a day, Day 7): 24.0±14.5
Inhibition rate (tumor size increase) ([4]; oral once a day, Day 7, vs control): 25.9%
Tumor size increase (Vt—V0) ([4]; oral once a day, Day 9): 36.5±12.5
Inhibition rate (tumor size increase) ([4]; oral once a day, Day 9, vs control): 31.3%
Tumor size increase (Vt—V0) ([4]; oral once a day, Day 12): 67.8±25.4
Inhibition rate (tumor size increase) ([4]; oral once a day, Day 12, vs control): 33.5%
Tumor size increase (Vt—V0) ([4]; oral once a day, Day 14): 119.9±37.5
Inhibition rate (tumor size increase) ([4]; oral once a day, Day 14, vs control): 34.1%
Tumor size increase (Vt—V0) ([4]; oral once a day, Day 16): 183.4±85.6
Inhibition rate (tumor size increase) ([4]; oral once a day, Day 16, vs control): 36.8%
Tumor size increase (Vt—V0) ([4]; oral once a day, Day 19): 322.8±71.3
Inhibition rate (tumor size increase) ([4]; oral once a day, Day 19, vs control): 39.0%
Tumor size increase (Vt—V0) ([4]; oral once a day, Day 21): 448.0±131.2
Inhibition rate (tumor size increase) ([4]; oral once a day, Day 21, vs control): 39.2%
Tumor size increase (Vt—V0) ([4]; oral once a day, Day 23): 575.0±159.7
Tumor weight at Day 23 ([4]; oral once a day, Day 23): 0.676 ± 0.185 g
Inhibition rate (tumor size increase) ([4]; oral once a day, Day 23, vs control): 41.4%
tumor size compared to the control group ([4]; oral, after day 19): statistically significantly smaller

From patent publication US20230107983A1, “COMPOUND ISOLATED FROM TORILIDIS FRUCTUS, AND ANTICANCER PHARMACEUTICAL COMPOSITION CONTAINING SAME AS ACTIVE INGREDIENT” (PHARMA-GENE CO., LTD., priority 2020, published 2023)
